Literature values in patent publication US20150196506A1, “CHEWING GUM FORMULATIONS COMPRISING DAPOXETINE AND TADALAFIL” (Sanovell Ilac Sanayi Ve Ticaret Anonim Sirketi, priority 2012, published 2015).

Experiments:
[1] = similarly poorly dissolved in gastric juice
[2] = following oral administration

Structure (SMILES) | solubility in water [1] | binding to plasma proteins [2]
CN1CC(=O)N2[C@H](c3ccc4c(c3)OCO4)c3[nH]c4ccccc4c3C[C@@H]2C1=O [Tadalafil, (6R-trans)-6-(1,3-benzodioxol-5-yl)-2,3,6,7,12,12a-hexahydro-2-methyl-pyrazino [1′,2′:1,6] pyrido[3,4-b]indole-1,4-dione] | poorly soluble in water | –
CN(C)[C@@H](CCOc1cccc2ccccc12)c1ccccc1 [dapoxetine] | – | almost completely
